Measurements published in article PMC12749626, “Expediting hit-to-lead progression in drug discovery through reaction prediction and multi-dimensional optimization” (Nature Communications, 2025).

Legend:
ADENOSINE A1 REC. = ADENOSINE A1 REC. (Homo sapiens, UniProt P30542); conditions: 10 uM; n=2
PHOSPHODIESTERASE 4D2 = PHOSPHODIESTERASE 4D2 (Homo sapiens, UniProt Q08499); conditions: 10 uM; n=2
[1] = system: closely related brain hydrolases; conditions: activity-based protein profiling, mouse brain, 10 µM
5HT1A = 5HT1A (Homo sapiens, UniProt P08908); conditions: 10 uM; n=2
DOPAMINE D1 REC. = DOPAMINE D1 REC. (Homo sapiens, UniProt P21728); conditions: 10 uM; n=2
PPARγ = PPARγ (Homo sapiens, UniProt P37231); conditions: 10 uM; n=2
PROSTAGLANDIN F REC. = PROSTAGLANDIN F REC. (Homo sapiens, UniProt P43088); conditions: 10 uM; n=2
ANDROGEN REC. = ANDROGEN REC. (Homo sapiens, UniProt P10275); conditions: 10 uM; n=2
GSK-3A = GSK-3A (Homo sapiens, UniProt P49840); conditions: 10 uM; n=2
GSK-3A, sequence (P49840 whole entry): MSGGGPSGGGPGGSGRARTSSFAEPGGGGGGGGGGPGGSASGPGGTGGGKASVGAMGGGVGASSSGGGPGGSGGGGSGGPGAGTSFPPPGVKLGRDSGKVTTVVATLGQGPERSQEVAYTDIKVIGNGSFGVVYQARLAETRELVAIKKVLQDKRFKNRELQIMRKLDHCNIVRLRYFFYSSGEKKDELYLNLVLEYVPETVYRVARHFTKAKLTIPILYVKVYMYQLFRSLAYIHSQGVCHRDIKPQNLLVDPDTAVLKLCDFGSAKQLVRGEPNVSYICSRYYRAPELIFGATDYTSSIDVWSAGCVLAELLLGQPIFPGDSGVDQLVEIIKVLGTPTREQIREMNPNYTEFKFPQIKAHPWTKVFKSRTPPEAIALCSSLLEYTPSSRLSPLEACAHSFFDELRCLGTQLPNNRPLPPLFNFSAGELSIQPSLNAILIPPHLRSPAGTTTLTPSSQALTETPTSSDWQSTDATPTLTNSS

β1-ADRENOCEPTOR = β1-ADRENOCEPTOR (Homo sapiens, UniProt P08588); conditions: 10 uM; n=2
5HT2B = 5HT2B (Homo sapiens, UniProt P41595); conditions: 10 uM; n=2
5HT2B, sequence (P41595 whole entry): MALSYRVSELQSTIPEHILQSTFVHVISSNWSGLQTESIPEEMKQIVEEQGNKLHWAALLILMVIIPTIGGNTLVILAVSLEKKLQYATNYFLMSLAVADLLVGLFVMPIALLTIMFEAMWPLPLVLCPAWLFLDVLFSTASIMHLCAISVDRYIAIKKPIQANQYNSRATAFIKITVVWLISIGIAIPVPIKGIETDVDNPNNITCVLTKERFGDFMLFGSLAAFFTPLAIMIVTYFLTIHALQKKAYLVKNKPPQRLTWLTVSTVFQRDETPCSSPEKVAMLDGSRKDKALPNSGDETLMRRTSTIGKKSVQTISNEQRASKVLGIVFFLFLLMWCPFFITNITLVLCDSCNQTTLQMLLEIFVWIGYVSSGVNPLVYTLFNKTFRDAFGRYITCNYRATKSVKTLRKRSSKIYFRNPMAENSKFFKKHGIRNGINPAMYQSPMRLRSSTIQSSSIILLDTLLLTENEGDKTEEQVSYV

SEROTONIN TRANSPORTER = SEROTONIN TRANSPORTER (Homo sapiens, UniProt P31645); conditions: 10 uM; n=2
ACETYLCHOLINESTERASE = ACETYLCHOLINESTERASE (Homo sapiens, UniProt P22303); conditions: 10 uM; n=2
[…]. M1 = […]. M1 (Homo sapiens, UniProt P11229); conditions: 10 uM; n=2
[…]. M1, sequence (P11229 whole entry): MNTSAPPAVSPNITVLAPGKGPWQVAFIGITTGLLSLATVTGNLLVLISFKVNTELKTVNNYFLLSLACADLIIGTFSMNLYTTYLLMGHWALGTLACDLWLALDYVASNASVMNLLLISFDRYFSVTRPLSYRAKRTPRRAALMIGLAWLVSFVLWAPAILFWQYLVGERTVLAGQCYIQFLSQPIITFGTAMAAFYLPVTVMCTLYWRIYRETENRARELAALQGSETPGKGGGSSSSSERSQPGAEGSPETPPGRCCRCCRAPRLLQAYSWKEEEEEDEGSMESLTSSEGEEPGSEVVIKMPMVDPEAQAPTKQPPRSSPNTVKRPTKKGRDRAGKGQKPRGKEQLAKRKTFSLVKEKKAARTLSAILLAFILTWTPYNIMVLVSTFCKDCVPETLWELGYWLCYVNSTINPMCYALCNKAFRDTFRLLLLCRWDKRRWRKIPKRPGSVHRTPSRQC

κ OPIOID REC. = κ OPIOID REC. (Homo sapiens, UniProt P41145); conditions: 10 uM; n=2
MONOAMINE OXIDASE-A = MONOAMINE OXIDASE-A (Homo sapiens, UniProt P21397); conditions: 10 uM; n=2
MONOAMINE OXIDASE-A, sequence (P21397 whole entry): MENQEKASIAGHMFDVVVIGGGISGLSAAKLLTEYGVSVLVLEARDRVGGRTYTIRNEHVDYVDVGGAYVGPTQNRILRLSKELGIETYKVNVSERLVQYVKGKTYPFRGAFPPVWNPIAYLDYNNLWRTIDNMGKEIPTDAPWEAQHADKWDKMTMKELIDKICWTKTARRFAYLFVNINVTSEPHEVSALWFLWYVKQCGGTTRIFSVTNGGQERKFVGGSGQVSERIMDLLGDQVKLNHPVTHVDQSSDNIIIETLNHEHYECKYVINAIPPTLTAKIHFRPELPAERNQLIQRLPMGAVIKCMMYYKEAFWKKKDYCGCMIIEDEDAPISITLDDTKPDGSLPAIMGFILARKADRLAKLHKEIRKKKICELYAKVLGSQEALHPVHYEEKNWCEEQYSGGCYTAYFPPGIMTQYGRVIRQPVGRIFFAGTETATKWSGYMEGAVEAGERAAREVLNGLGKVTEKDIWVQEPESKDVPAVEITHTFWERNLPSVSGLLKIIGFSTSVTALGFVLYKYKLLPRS

A[…]. ENZ. = A[…]. ENZ. (Homo sapiens, UniProt P12821); conditions: 10 uM; n=2
A[…]. ENZ., sequence (P12821 30-1306): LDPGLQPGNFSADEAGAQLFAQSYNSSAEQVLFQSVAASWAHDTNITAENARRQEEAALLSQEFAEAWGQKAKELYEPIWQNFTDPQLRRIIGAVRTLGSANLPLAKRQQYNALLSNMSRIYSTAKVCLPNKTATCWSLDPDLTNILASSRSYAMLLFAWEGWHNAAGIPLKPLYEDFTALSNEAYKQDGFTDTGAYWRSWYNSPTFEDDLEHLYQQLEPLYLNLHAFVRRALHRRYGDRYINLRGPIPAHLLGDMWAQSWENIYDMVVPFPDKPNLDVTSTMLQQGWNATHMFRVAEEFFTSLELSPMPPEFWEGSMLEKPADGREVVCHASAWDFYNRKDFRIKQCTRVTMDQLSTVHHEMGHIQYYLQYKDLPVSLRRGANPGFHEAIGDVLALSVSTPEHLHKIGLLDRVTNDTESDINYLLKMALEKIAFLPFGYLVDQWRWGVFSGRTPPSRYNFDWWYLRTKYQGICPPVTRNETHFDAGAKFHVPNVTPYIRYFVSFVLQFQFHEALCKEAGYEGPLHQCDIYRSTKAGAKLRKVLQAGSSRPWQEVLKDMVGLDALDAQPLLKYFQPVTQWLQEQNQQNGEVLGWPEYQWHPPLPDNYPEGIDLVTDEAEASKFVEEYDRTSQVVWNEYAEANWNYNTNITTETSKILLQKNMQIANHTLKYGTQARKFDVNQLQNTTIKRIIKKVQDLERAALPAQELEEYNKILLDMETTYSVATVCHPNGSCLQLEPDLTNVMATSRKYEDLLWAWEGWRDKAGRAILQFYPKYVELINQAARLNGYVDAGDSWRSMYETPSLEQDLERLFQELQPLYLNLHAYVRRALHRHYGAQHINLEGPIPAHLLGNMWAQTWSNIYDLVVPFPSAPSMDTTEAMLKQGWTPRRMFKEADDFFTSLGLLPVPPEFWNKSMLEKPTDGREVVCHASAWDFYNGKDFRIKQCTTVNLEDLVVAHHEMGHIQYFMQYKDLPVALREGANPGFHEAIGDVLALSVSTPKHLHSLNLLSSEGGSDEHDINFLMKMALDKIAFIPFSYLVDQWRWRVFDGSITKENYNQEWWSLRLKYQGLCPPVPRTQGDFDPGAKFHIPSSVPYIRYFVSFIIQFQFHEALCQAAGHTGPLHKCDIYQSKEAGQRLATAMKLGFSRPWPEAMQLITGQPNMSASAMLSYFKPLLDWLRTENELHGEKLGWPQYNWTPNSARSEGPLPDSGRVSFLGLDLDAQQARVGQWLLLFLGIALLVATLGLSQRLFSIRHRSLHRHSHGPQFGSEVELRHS

α2A-ADRENOCEPTOR = α2A-ADRENOCEPTOR (Homo sapiens, UniProt P08913); conditions: 10 uM; n=2
HISTAMINE H3 REC. = HISTAMINE H3 REC. (Homo sapiens, UniProt Q9Y5N1); conditions: 10 uM; n=2
[…]. M2 = […]. M2 (Homo sapiens, UniProt P08172); conditions: 10 uM; n=2
ZAP70 = ZAP70 (Homo sapiens, UniProt P43403); conditions: 10 uM; n=2
NORE[…]. = NORE[…]. (Homo sapiens, UniProt P23975); conditions: 10 uM; n=2
CYCLO OXYGENASE 2 = CYCLO OXYGENASE 2 (Homo sapiens, UniProt P35354); conditions: 10 uM; n=2
5HT2A = 5HT2A (Homo sapiens, UniProt P28223); conditions: 10 uM; n=2
5HT2A, sequence (P28223 whole entry): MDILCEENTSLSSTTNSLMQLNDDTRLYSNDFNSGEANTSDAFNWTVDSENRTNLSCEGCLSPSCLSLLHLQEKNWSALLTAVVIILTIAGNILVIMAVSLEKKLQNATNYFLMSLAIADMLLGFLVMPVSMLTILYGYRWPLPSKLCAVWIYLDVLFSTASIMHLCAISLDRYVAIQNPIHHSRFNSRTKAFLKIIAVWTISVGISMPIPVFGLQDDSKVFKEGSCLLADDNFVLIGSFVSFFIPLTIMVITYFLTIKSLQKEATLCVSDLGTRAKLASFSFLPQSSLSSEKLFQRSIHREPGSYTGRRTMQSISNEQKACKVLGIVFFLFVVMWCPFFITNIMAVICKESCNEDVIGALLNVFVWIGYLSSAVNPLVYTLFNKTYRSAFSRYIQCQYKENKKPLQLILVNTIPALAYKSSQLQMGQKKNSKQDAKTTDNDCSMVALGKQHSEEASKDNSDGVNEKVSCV

μ OPIOID REC. = μ OPIOID REC. (Homo sapiens, UniProt P35372); conditions: 10 uM; n=2
μ OPIOID REC., sequence (P35372 whole entry): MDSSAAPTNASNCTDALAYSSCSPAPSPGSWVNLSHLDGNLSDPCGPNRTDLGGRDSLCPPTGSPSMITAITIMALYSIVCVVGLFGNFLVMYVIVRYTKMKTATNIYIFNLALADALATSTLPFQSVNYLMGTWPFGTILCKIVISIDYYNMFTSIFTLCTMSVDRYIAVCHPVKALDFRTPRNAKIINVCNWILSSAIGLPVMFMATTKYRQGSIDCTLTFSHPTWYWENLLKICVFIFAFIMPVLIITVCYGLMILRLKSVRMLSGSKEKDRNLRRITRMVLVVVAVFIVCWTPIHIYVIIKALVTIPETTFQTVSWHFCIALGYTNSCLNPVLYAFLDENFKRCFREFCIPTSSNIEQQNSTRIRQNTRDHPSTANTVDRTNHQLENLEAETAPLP

α1A-ADRENOCEPTOR = α1A-ADRENOCEPTOR (Homo sapiens, UniProt P35348); conditions: 10 uM; n=2
HISTAMINE H1 REC. = HISTAMINE H1 REC. (Homo sapiens, UniProt P35367); conditions: 10 uM; n=2
human MAGL = molecular target: T1, human MAGL (Homo sapiens, UniProt Q99685); conditions: = pIC50 - cLogP
T1 sequence (Q99685 1-303): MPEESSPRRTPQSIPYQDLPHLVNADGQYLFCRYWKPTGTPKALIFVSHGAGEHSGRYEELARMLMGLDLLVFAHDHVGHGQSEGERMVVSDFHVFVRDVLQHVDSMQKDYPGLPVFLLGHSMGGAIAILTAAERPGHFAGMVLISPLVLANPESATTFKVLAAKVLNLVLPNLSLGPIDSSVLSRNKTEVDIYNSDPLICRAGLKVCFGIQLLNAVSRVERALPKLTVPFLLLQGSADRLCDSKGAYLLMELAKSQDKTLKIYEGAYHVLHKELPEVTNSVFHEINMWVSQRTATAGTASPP

GSK-3B = GSK-3B (Homo sapiens, UniProt P49841); conditions: 10 uM; n=2
XANTHINE OXIDASE = XANTHINE OXIDASE (Bos taurus, UniProt P80457); conditions: 10 uM; n=2
β2-ADRENOCEPTOR = β2-ADRENOCEPTOR (Homo sapiens, UniProt P07550); conditions: 10 uM; n=2
ANGIOTENSIN II REC. 1 = ANGIOTENSIN II REC. 1 (Homo sapiens, UniProt P30556); conditions: 10 uM; n=2
CDK2 = CDK2 (Homo sapiens, UniProt P24941); conditions: 10 uM; n=2
5HT3 = 5HT3 (Homo sapiens, UniProt P46098); conditions: 10 uM; n=2
5HT3, sequence (P46098 24-478): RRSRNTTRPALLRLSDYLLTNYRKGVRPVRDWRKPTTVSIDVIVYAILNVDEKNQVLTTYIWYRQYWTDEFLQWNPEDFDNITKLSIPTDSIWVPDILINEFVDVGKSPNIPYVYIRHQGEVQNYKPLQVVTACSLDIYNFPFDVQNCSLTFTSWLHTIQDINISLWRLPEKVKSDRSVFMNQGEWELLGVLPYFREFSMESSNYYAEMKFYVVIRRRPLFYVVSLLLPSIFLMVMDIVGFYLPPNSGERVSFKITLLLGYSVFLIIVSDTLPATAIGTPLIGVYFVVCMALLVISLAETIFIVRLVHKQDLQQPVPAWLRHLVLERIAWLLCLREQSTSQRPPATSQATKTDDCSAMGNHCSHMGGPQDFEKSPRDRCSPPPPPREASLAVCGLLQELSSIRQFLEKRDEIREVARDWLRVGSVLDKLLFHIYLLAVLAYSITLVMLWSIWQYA

HIV-1 PROTEASE = HIV-1 PROTEASE (Human immunodeficiency virus type 1 group M subtype B, UniProt P04585); conditions: 10 uM; n=2
CHOLECYSTOKININ 1 REC. = CHOLECYSTOKININ 1 REC. (Homo sapiens, UniProt P32238); conditions: 10 uM; n=2
ADENOSINE A3 REC. = ADENOSINE A3 REC. (Homo sapiens, UniProt P0DMS8); conditions: 10 uM; n=2
ADENOSINE A3 REC., sequence (P0DMS8 whole entry): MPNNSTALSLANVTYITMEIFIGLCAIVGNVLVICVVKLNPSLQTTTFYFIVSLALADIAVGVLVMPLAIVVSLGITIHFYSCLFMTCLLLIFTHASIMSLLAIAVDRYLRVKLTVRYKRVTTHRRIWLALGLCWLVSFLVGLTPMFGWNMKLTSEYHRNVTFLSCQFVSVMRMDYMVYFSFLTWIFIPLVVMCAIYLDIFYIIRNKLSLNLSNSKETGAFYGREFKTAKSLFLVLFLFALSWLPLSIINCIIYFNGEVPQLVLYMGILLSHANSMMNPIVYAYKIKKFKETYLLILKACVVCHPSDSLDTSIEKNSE

For `O=C(c1ccc2nc(-c3cnccc3C3(C4CCC4)CC3)oc2c1)N1CCN(c2nc3nc(Cl)ccc3o2)CC1` [Compound 27], the “ADENOSINE A1 REC. percent activity or inhibition compared to the assay reference” value (ADENOSINE A1 REC.) was 13%, the “PHOSPHODIESTERASE 4D2 percent activity or inhibition compared to the assay reference” value (PHOSPHODIESTERASE 4D2) was -7% and the “selectivity toward MAGL over off-targets and closely related brain hydrolases” value [1] was “high selectivity”. The “5HT1A percent activity or inhibition compared to the assay reference” value (5HT1A) was 28%, the “DOPAMINE D1 REC. percent activity or inhibition compared to the assay reference” value (DOPAMINE D1 REC.) was -2% and the “PPARγ percent activity or inhibition compared to the assay reference” value (PPARγ) was 9%. The “PROSTAGLANDIN F REC. percent activity or inhibition compared to the assay reference” value (PROSTAGLANDIN F REC.) was 0%, the “ANDROGEN REC. percent activity or inhibition compared to the assay reference” value (ANDROGEN REC.) was -6% and the “GSK-3A percent activity or inhibition compared to the assay reference” value (GSK-3A) was 30%. The “β1-ADRENOCEPTOR percent activity or inhibition compared to the assay reference” value (β1-ADRENOCEPTOR) was 4%, the “5HT2B percent activity or inhibition compared to the assay reference” value (5HT2B) was 10% and the “SEROTONIN TRANSPORTER percent activity or inhibition compared to the assay reference” value (SEROTONIN TRANSPORTER) was 1%. For the same compound, the “ACETYLCHOLINESTERASE percent activity or inhibition compared to the assay reference” value (ACETYLCHOLINESTERASE) was -4%, the “[…]. M1 percent activity or inhibition compared to the assay reference” value ([…]. M1) was 52% and the “κ OPIOID REC. percent activity or inhibition compared to the assay reference” value (κ OPIOID REC.) was 48%. For the same compound, the “MONOAMINE OXIDASE-A percent activity or inhibition compared to the assay reference” value (MONOAMINE OXIDASE-A) was -2%, the “A[…]. ENZ. percent activity or inhibition compared to the assay reference” value (A[…]. ENZ.) was -12% and the “α2A-ADRENOCEPTOR percent activity or inhibition compared to the assay reference” value (α2A-ADRENOCEPTOR) was 0%. For the same compound, the “HISTAMINE H3 REC. percent activity or inhibition compared to the assay reference” value (HISTAMINE H3 REC.) was 15%, the “[…]. M2 percent activity or inhibition compared to the assay reference” value ([…]. M2) was 76% and the “ZAP70 percent activity or inhibition compared to the assay reference” value (ZAP70) was -15%. The “NORE[…]. percent activity or inhibition compared to the assay reference” value (NORE[…].) was 28%, the “CYCLO OXYGENASE 2 percent activity or inhibition compared to the assay reference” value (CYCLO OXYGENASE 2) was 6% and the “5HT2A percent activity or inhibition compared to the assay reference” value (5HT2A) was 12%. For the same compound, the “μ OPIOID REC. percent activity or inhibition compared to the assay reference” value (μ OPIOID REC.) was 16%, the “α1A-ADRENOCEPTOR percent activity or inhibition compared to the assay reference” value (α1A-ADRENOCEPTOR) was 5% and the “HISTAMINE H1 REC. percent activity or inhibition compared to the assay reference” value (HISTAMINE H1 REC.) was 48%. The “Lipophilic efficiency (LipE)” value (human MAGL) was 3.72, the “GSK-3B percent activity or inhibition compared to the assay reference” value (GSK-3B) was -8% and the “XANTHINE OXIDASE percent activity or inhibition compared to the assay reference” value (XANTHINE OXIDASE) was 6%. The “β2-ADRENOCEPTOR percent activity or inhibition compared to the assay reference” value (β2-ADRENOCEPTOR) was -2%, the “ANGIOTENSIN II REC. 1 percent activity or inhibition compared to the assay reference” value (ANGIOTENSIN II REC. 1) was -1% and the “CDK2 percent activity or inhibition compared to the assay reference” value (CDK2) was 0%. The “5HT3 percent activity or inhibition compared to the assay reference” value (5HT3) was -3%, the “HIV-1 PROTEASE percent activity or inhibition compared to the assay reference” value (HIV-1 PROTEASE) was 34% and the “CHOLECYSTOKININ 1 REC. percent activity or inhibition compared to the assay reference” value (CHOLECYSTOKININ 1 REC.) was 4%. The “ADENOSINE A3 REC. percent activity or inhibition compared to the assay reference” value (ADENOSINE A3 REC.) was 7%.
